{"source": "patent US20040052799A1", "about": "“Nucleic acid and amino acid sequences relating to Helicobacter pylori for diagnostics and therapeutics” (Astra Aktiebolag, priority 1996, published 2004)", "key": {"H. pylori (strain AH244)": {"test_system": "H. pylori (strain AH244)", "format": "in vivo", "conditions": "BALB/c mice infected with strain AH244, 100 μg antigen + 10 μg CT orally, compared to control, FIGS. 3 and 4"}, "E. coli Asd": {"molecular_target": "T1, E. coli Asd (Escherichia coli, UniProt P0A9Q9)", "T1 construct": "made in house; host or cells: E. coli HMS174 pLysS, pET28b", "T1 sequence (P0A9Q9 1-367)": "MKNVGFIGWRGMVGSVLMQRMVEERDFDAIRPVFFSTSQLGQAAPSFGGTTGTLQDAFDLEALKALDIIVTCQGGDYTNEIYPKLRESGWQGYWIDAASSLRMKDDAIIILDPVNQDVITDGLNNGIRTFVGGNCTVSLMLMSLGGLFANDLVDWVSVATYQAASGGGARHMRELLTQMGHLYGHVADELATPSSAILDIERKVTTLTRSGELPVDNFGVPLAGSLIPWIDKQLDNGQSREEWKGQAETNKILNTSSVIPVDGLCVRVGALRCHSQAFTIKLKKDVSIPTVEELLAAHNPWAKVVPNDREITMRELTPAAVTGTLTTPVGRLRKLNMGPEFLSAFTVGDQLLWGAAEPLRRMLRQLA", "experiment": "Asd assay, reverse reaction, NADPH formation", "format": "biochemical", "conditions": "pH 7.5; read-out: Km for phosphate", "method": "(§1) The enzymatic activity of purified His-tagged H. pylori Asd (SEQ ID NO: 6545) was characterized by assaying the reverse reaction of phosphorylation of L-aspartate-β-semialdehyde (ASA) to L-p-aspartyl phosphate, with concomitant reduction of NADP^+ to NADPH. The formation of NADPH was detected by its absorbance, 340 nm, or by its fluorescence, excitation =340 nm, emission 455 nm.\n(§2) ASA in 4 N HCl was prepared daily for use in Asd assays by partial neutralization with addition of 1.0 equivalent of […], with a resulting pH=1-2. The amount of ASA was determined enzymatically by complete reaction in the presence of excess NADP^+and phosphate. […] Assays were performed in the following buffer: 200 mM HEPES, 0.3 mM NADP^+, 30 mM NaH2PO4, 1.0 mM DTT, pH 7.5 or pH 8.0. ASA was used in the assay at concentrations of 5-165 μM by diluting the partially-neutralized ASA stock into the assay 10-200 fold, leading to a decrease in pH of 0.1 units or less. Reaction was initiated with the addition of enzyme to a final concentration of 3.5-70 nM."}, "H. pylori Asd": {"molecular_target": "H. pylori Asd (Helicobacter pylori, UniProt Q9ZK28)", "sequence (Q9ZK28 whole entry)": "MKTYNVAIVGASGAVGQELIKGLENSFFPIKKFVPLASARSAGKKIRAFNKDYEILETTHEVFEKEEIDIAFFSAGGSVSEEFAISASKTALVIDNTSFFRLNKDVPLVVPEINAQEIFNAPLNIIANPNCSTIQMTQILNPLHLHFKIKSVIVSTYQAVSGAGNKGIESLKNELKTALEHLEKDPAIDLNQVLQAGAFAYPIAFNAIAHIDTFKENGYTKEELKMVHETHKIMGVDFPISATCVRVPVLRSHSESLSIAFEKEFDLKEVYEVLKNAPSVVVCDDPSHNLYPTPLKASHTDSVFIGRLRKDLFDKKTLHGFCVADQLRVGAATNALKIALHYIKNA", "experiment": "Asd assay, reverse reaction, NADPH formation", "conditions": "read-out: Km for phosphate; pH 8.0", "method": "as §1, §2"}, "[1]": {"molecular_target": "T2, H. pylori glutamate racemase (Helicobacter pylori, UniProt Q9ZLT0)", "T2 construct": "made in house; host or cells: E. coli BL21(DE3) carrying pET-23-murI and pACYC-groE (GroES/GroEL co-expressed)", "T2 sequence (Q9ZLT0 whole entry)": "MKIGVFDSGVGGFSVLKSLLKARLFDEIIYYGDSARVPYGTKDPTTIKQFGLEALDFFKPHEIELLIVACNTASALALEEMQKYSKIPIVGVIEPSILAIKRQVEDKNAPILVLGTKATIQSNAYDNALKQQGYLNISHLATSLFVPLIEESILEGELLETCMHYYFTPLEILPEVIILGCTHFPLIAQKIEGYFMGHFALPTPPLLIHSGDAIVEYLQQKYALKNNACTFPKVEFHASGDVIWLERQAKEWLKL", "experiment": "Inactivation of glutamate racemase by L-serine-O-sulfate, single enzyme coupled assay", "format": "biochemical", "conditions": "20 mM L-serine-O-sulfate, different incubation times, FIG. 7", "method": "In this assay, the conversion of D-glutamic acid to L-glutamic acid is coupled to the conversion of L-glutamic acid and NAD^+by L-glutamate dehydrogenase to 2-oxoglutarate, ammonia. The production of NADH is measured as an increase of absorbance at 340 nm (the reduction of NAD^+ to NADH) at 37° C. The standard assay mixture (adapted from Choi, S- Y, Esaki, N., Yoshimura, T., and Soda, K., 1991, Protein Expression and Purification 2, 90-93) contained 10 mM Tris-HCl, pH 7.5, 5 mM NAD+, 5 Units/ml L-glutamate dehydrogenase, varying concentrations of the substrate D-Glutamic Acid (0.063 mM to 250 mM), and the purified recombinant H. pylori enzyme glutamate racemase (1 μg to 50 μg). The reaction was started by the addition of either the substrate D-glutamic acid or the recombinant glutamate racemase after a preincubation at 37° C. for 5 minutes with all of the other assay ingredients. The change in absorbance at 340 nm was measured in a Spectra MAX 250. Initial velocities were derived from the initial slopes. […]\nThe H. pylori glutamate racemase was tested for inactivation with a sucuide inhibitor, L-serine-O sulfate, which is known to inhibit murI from E. coli. […] The initial velocity of purified recombinant H. pylroi murI protein was determined in the single enzyme coupled asssay following incubation with the inhibitor L-serine-O-sulfate (LSOS) at 20 mM for the times indicated on the x-axis. […]"}, "[2]": {"experiment": "Stability of ASA in solution", "format": "physicochemical", "method": "ASA in 4 N HCl was prepared daily for use in Asd assays by partial neutralization with addition of 1.0 equivalent of […], with a resulting pH=1-2. The amount of ASA was determined enzymatically by complete reaction in the presence of excess NADP^+and phosphate. […] These observations are consistent with previous reports on the stability of ASA (Karsten et al., 1991, Biochim. Biophys. Acta 1077, 209-219). Assays were performed in the following buffer: 200 mM HEPES, 0.3 mM NADP^+, 30 mM NaH2PO4, 1.0 mM DTT, pH 7.5 or pH 8.0. ASA was used in the assay at concentrations of 5-165 μM by diluting the partially-neutralized ASA stock into the assay 10-200 fold, leading to a decrease in pH of 0.1 units or less. Reaction was initiated with the addition of enzyme to a final concentration of 3.5-70 nM."}}, "note": "Like-named read-outs stand apart in the source and are kept apart here."}
{"compound": "lacZ: non-Helicobacter pylori control protein (β-galactosidase from E. coli) constructed with a hexa-HIS tag [reference compound]", "values": [{"measurement": "degree of colonization of the antrum", "setting": "H. pylori (strain AH244)", "result": "higher Helicobacter colonization"}, {"measurement": "reduction and/or eradication of the H. pylori infection (therapeutic immunization effect)", "setting": "H. pylori (strain AH244)", "result": "no eradication effect"}, {"measurement": "degree of colonization of the antrum", "setting": "H. pylori (strain AH244); listed as LacZ", "result": "highest colonization in the antrum"}]}
{"compound": "phosphate [reference compound]", "values": [{"measurement": "Km", "setting": "E. coli Asd", "result": 1300, "unit": "µM"}, {"measurement": "Km", "setting": "H. pylori Asd", "result": 2100, "unit": "µM"}]}
{"compound": "N[C@@H](COS(=O)(=O)O)C(=O)O", "note": "[L-Serine-O-Sulfate]", "values": [{"measurement": "inactivation of glutamate racemase by the inhibitor (residual initial velocity)", "setting": "[1]", "result": "readily inactivated"}]}
{"compound": "N[C@@H](CC=O)C(=O)O", "note": "[ASA, L-aspartate-β-semialdehyde]", "values": [{"measurement": "half-life", "setting": "[2]; assay buffer, pH 7.7 (under assay conditions), read-out: t½ (converted)", "result": 5, "unit": "h"}, {"measurement": "time ASA found to be stable", "setting": "[2]; pH 1.4", "result": "up to 48 hours"}]}
